Patent US12171813B2, “Methods of and compositions for reducing gene expression and/or activity” (Christiana Care Gene Editing Institute, Inc., priority 2021, dated 2024)

System: NRF2
Assay: cDNA PCR analysis of exon skipping / full-size transcript in NFE2L2
Assay type: cell-based, Human
Settings: gRNA individually applied in the CRISPR reaction; NCI-H1703 clone 44-25 cells
Experimental: After CRISPR reactions, total RNA was prepared, and cDNA synthesized for PCR amplification of the target region from NRF2. PCR-amplified DNA was then analyzed by electrophoresis through a 1% agarose gel for 75 minutes at 80v. DNA was stained with SYBR Safe. Lanes 1 and 10: NEB 2 Log Ladder; Lane 2: Scrambled gRNA; Lane 3: NRF2 3-4 SureKill gRNA 3 alone; Lane 4: NRF2 3-4 SureKill gRNA 12 alone; Lane 5: NRF2 3-4 SureKill gRNA 14 alone; Lane 6: NRF2 3-4 SureKill gRNA 15 alone; Lane 7: NRF2 3-4 SureKill gRNA 21 alone; Lane 8: NRF2 3-4 SureKill gRNA 25 alone; Lane 9: NRF2 3-4 SureKill gRNA 26 alone. On the left side of the image are markers indicating DNA size in bp.
After CRISPR reactions, total RNA was prepared, and cDNA synthesized for PCR amplification of the target region from NRF2. PCR-amplified DNA was then analyzed by electrophoresis through a 1% agarose gel for 75 minutes at 80v. DNA was stained with SYBR Safe. Lane 1: NEB 2 Log Ladder; Lane 2: Scrambled gRNA; Lane 3: R34G gRNA alone; Lane 4: NRF2 3-4 SureKill gRNA 3+R34G gRNA; Lane 5: NRF2 3-4 SureKill gRNA+R34G gRNA; Lane 6: NRF2 3-4 SureKill gRNA 14+R34G gRNA. […]
Transfections were carried out using the Lonza Nuclefector 4d. […] RNPs were complexed at 250:50 pmol for 30 minutes prior to transfection, during which time cells were harvested and counted. […]

In the case of “R34G gRNA: guide RNA GATATAGATCTTGGAGTAAG, SEQ ID NO:1, targets NRF2 R34G mutation (listed as DNA, chemistry not given here)”, the “exon skipping (cDNA analysis)” value is reported as “induced some level of exon skipping”.
